From patent US10759757B2, “Crystalline contrast agent for magnetic resonance imaging, kit and composition comprising it and their use” (Southern Medical University, priority 2016, dated 2020)
Where two headings read alike, the source gives them in different places.

How the values were obtained:
[1] = Longitudinal relaxation time (T1) measurement, r1 relaxivity in deionized water; type: physicochemical
Protocol: IR spectra were recorded on a […] 550 infrared spectrometer. Elemental analyses for C, H, and N were performed on an EA1110 CHNS elemental analyzer. Thermogravimetric analysis (TGA) was performed on an SDTA851 Thermogravimetric Analyzer at a heating rate of 10° C. min^-1 under a nitrogen gas flow in an Al2O3 pan. Powder X-ray diffraction (PXRD) spectra were recorded with a Rigaku D/max-2200/PC. The X-ray generated from a sealed Cu tube was mono-chromated by a graphite crystal and collimated by a 0.5 mm MONOCAP (λ Cu-Kα=1.54178 Å). The tube voltage and current were 40 kV and 40 mA, respectively. […] The measurement of the longitudinal relaxation time T1 was conducted at 30° C. Five samples of compounds 1 and 2 were prepared with the concentrations of 31.25, 62.5, 125, 250, and 500 μM in deionized water, respectively. Before the T1 test, these samples were ultrasonicated for 2 min to dissolve the compounds homogeneously in deionized water. The T1 of deionized water was tested as background. The T1 of the MOF solution was corrected from the background. The measurement time of each sample was ca. 2 min. […] On each image, signal intensities were measured by drawing ROIs in the center of each vial. The T1 relaxation times were performed by fitting the acquired inversion recovery images to a following equation: […]1)), where M and M0 are measured and initial magnetization, respectively. […]

[2] = literature values; cited from earlier work

| SMILES | r1 relaxivity ([1]; 0.5 T, 30° C., deionized water, 31.25 to 500 μM) [mM⁻¹ s⁻¹] | relaxivity rates (r1), MRI phantom measurement ([1]; 3T, in water) [mM^−1S^−1] | r1 relaxivity [2] [mM⁻¹ s⁻¹] |
| --- | --- | --- | --- |
| O=C([O-])CN(CCN(CC(=O)[O-])CC(=O)O)CCN(CC(=O)[O-])CC(=O)O.[Gd+3] [Gd-DTPA] | 4.87 | 4.98 |  |
| CNC(=O)CN(CCN(CCN(CC(=O)[O-])CC(=O)NC)CC(=O)[O-])CC(=O)[O-].[Gd+3] [OmniScan] |  |  | 4.1 |
